Here are results for 10 compounds from ChEMBL document CHEMBL3600337, “Chemoenzymatic synthesis and cytotoxicity of oenanthotoxin and analogues” (Bioorg Med Chem, 2015).

In experiment [1] the test system is HT-29. As to the kind of experiment: Cytotoxicity against human HT-29 cells after 96 hrs by sulforhodamine B assay. It is filed as functional, cell-based. The conditions noted are these: HT-29, 96 h. For orientation: In SRB staining, fixed cells bind dye roughly in proportion to their protein.
A short description of experiment [2]: Cytotoxicity against mouse NIH/3T3 cells after 96 hrs by sulforhodamine B assay. The class given is cell-based. Conditions: NIH3T3, 96 h.
A short description of experiment [3]: Cytotoxicity against human 518A2 cells after 96 hrs by sulforhodamine B assay. The class given is functional, cell-based. The conditions noted are these: 518A2, 96 h.
The test system of experiment [4] is 8505C. As to the kind of experiment: Cytotoxicity against human 8505C cells after 96 hrs by sulforhodamine B assay. It is filed as functional, cell-based.
Experiment [5] concerns A549. As to the kind of experiment: Cytotoxicity against human A549 cells after 96 hrs by sulforhodamine B assay. It is filed as functional, cell-based. Conditions: A549, 96 h.
For experiment [6], the system named is A2780. Nature of the experiment: Cytotoxicity against human A2780 cells after 96 hrs by sulforhodamine B assay. The class given is functional, cell-based. The conditions noted are these: A2780, 96 h.
Experiment [7] concerns MCF7. As to the kind of experiment: Cytotoxicity against human MCF7 cells after 96 hrs by sulforhodamine B assay. It is filed as functional, cell-based. The conditions noted are these: MCF7, 96 h.

The term EC50 denotes the concentration giving half of the maximal effect. Regarding `CCCC(=O)CC/C=C/C=C/C#CC#C/C=C/CO`, the EC50 in experiment [1] came to 21.2 µM; in experiment [2], 11.1 µM; in experiment [3], 19.1 µM; in experiment [4], 18 µM; in experiment [5], 19.7 µM; in experiment [6], 4.9 µM. Also, the EC50 in experiment [7] was 234 µM.
Regarding `CCC[C@@H](O)CC/C=C/C=C/C#CC#C/C=C/COC(C)=O`, the EC50 in experiment [1] was 26.3 µM; in experiment [2] it was 16.9 µM; in experiment [3], 14.9 µM; in experiment [4], 20.3 µM; in experiment [5] it was 20.5 µM; in experiment [6], 6.8 µM. In experiment [7], this compound showed a half-maximal effective concentration (EC50) of 21.3 µM.
Consider `CCC[C@@H](CC/C=C/C=C/C#CC#C/C=C/COC(C)=O)OC(C)=O`, for which the 50% effective concentration (EC50) in experiment [1] was found to be 17.9 µM; in experiment [2], 11.8 µM; in experiment [3] it was 14.7 µM; in experiment [4], 16.8 µM; in experiment [5], 14.5 µM; in experiment [6], 3.9 µM. The same compound showed an EC50 in experiment [7] of 12.4 µM.
Regarding `CCCC(=O)CC/C=C/C=C/C#CC#C/C=C/COC(C)=O`, the EC50 in experiment [1] was above 30 µM; in experiment [2] it was 14.2 µM; in experiment [3], 9.1 µM; in experiment [4], 15.6 µM; in experiment [5], 56.4 µM; in experiment [6] it was 4.7 µM. For the same compound, the EC50 in experiment [7] was 21.6 µM.
Turning to `CCCC(=O)CC/C=C/C=C/C#CC#C/C=C/COC(=O)c1ccccc1`, the 50% effective concentration (EC50) in experiment [1] is 7.9 µM; in experiment [2] it was 26.7 µM; in experiment [3], 20.5 µM; in experiment [4], 4.2 µM; in experiment [5], 14.4 µM; in experiment [6], above 30 µM. This compound also showed an EC50 in experiment [7] above 30 µM.
As to `CCCC(=O)CC/C=C/C=C/C#CC#C/C=C/COC(=O)CCl`, the EC50 is above 30 µM in experiment [1]; 11.9 µM in experiment [2]; 12.6 µM in experiment [3]; 19.3 µM in experiment [4]; 5.1 µM in experiment [5]; 3.6 µM in experiment [6]. The compound further showed an EC50 in experiment [7] of 26.9 µM.
Consider `CCCC(=O)CC/C=C/C=C/C#CC#C/C=C/C=O`, for which the EC50 in experiment [1] was 22.2 µM; in experiment [2] it was 13.2 µM; in experiment [3] it was above 30 µM; in experiment [4] it was 7.1 µM; in experiment [5] it was above 30 µM; in experiment [6] it was 7 µM. In experiment [7], the concentration for a half-maximal effect (EC50) amounted to 5.9 µM.
As to `CCCC(=O)CC/C=C/C=C/C#CC#C/C=C/C(=O)O`, the EC50 in experiment [1] is above 30 µM; in experiment [2] it was above 30 µM; in experiment [3], above 30 µM; in experiment [4], 19.3 µM; in experiment [5] it was above 30 µM; in experiment [6], above 30 µM. In experiment [7], this compound returned an EC50 above 30 µM.
For the compound `C=C(C)[C@@H]1CC[C@]2(C(=O)O)CC[C@]3(C)[C@H](CC[C@@H]4[C@@]5(C)CC[C@H](O)C(C)(C)[C@@H]5CC[C@]43C)[C@@H]12` [BETULINIC ACID], the EC50 worked out at 13.1 µM in experiment [1]; 10 µM in experiment [2]; 11.9 µM in experiment [3]; 6.7 µM in experiment [4]; 14.8 µM in experiment [5]; 11 µM in experiment [6]. For the same compound, the EC50 in experiment [7] is 14.9 µM.
Take `CCC[C@@H](O)CC/C=C/C=C/C#CC#C/C=C/CO` [OENANTHOTOXIN]: the EC50 in experiment [1] was above 30 µM; in experiment [2], 10.1 µM; in experiment [3] it was 17.1 µM; in experiment [4] it was 10.5 µM; in experiment [5], 10.9 µM; in experiment [6], 3.8 µM. Moreover, the EC50 in experiment [7] came out at 20.6 µM.
